Results as given in the OligoGym collection.
Bases are written 5' to 3'; sugars and linkages follow in the same order, as letters with counts (s phosphorothioate, o phosphodiester; PS: all linkages phosphorothioate). C may stand for cytosine or 5-methylcytosine; the collection does not tell. l = locked nucleic acid (LNA); d = 2'-deoxy (DNA)

Target: HIF1A
Test: HeLa, 100 nM transfected, 24 h, mean of 3
Conditions: ASO

Sequence	caspase activation (% of PBS control)
GCAAGCATCCTGT (sugars l1 d11 l1, PS)	137
GCAAGCATCCTGT (sugars l2 d1 l1 d6 l3, PS)	267
GCAAGCATCCTGT (sugars l2 d1 l1 d7 l2, PS)	319
GCAAGCATCCTGT (sugars l2 d1 l1 d8 l1, PS)	314
GCAAGCATCCTGT (sugars l2 d8 l1 d1 l1, PS)	281
GCAAGCATCCTGT (sugars l2 d8 l3, PS)	401
GCAAGCATCCTGT (sugars l2 d9 l2, PS)	285
GCAAGCATCCTGT (sugars l2 d10 l1, PS)	279
GCAAGCATCCTGT (sugars l3 d7 l1 d1 l1, PS)	426
GCAAGCATCCTGT (sugars l3 d7 l3, PS)	600
GCAAGCATCCTGT (sugars l3 d8 l2, PS)	450
GCAAGCATCCTGT (sugars l3 d9 l1, PS)	346
GCAAGCATCCTGT (sugars l4 d6 l1 d1 l1, PS)	305
GCAAGCATCCTGT (sugars l4 d6 l3, PS)	340
GCAAGCATCCTGT (sugars l4 d7 l2, PS)	352
GCAAGCATCCTGT (sugars l4 d8 l1, PS)	344
GCAAGCATCCTGT (sugars lddlddddddldl, PS)	109
GCAAGCATCCTGT (sugars ldldddddddldl, PS)	181
GCAAGCATCCTGT (sugars ldllddddddldl, PS)	176
GCAAGCATCCTGT (sugars lldlddddddldl, PS)	209
GGCAAGCATCCTG (sugars l1 d1 l1 d7 l3, PS)	721
GGCAAGCATCCTG (sugars l1 d1 l1 d8 l2, PS)	685
GGCAAGCATCCTG (sugars l1 d1 l1 d9 l1, PS)	339
GGCAAGCATCCTG (sugars l1 d1 l2 d6 l3, PS)	495
GGCAAGCATCCTG (sugars l1 d1 l2 d7 l2, PS)	688
GGCAAGCATCCTG (sugars l1 d1 l2 d8 l1, PS)	547
GGCAAGCATCCTG (sugars l1 d2 l1 d6 l3, PS)	397

Sequence	caspase activation (% of PBS control)
GGCAAGCATCCTG (sugars l1 d2 l1 d7 l2, PS)	361
GGCAAGCATCCTG (sugars l1 d2 l1 d8 l1, PS)	205
GGCAAGCATCCTG (sugars l1 d9 l1 d1 l1, PS)	390
GGCAAGCATCCTG (sugars l1 d9 l3, PS)	468
GGCAAGCATCCTG (sugars l1 d10 l2, PS)	394
GGCAAGCATCCTG (sugars l1 d11 l1, PS)	316
GGCAAGCATCCTG (sugars l2 d1 l1 d6 l3, PS)	502
GGCAAGCATCCTG (sugars l2 d1 l1 d7 l2, PS)	560
GGCAAGCATCCTG (sugars l2 d1 l1 d8 l1, PS)	359
GGCAAGCATCCTG (sugars l2 d8 l1 d1 l1, PS)	327
GGCAAGCATCCTG (sugars l2 d8 l3, PS)	657
GGCAAGCATCCTG (sugars l2 d9 l2, PS)	554
GGCAAGCATCCTG (sugars l2 d10 l1, PS)	291
GGCAAGCATCCTG (sugars l3 d7 l1 d1 l1, PS)	632
GGCAAGCATCCTG (sugars l3 d7 l3, PS)	632
GGCAAGCATCCTG (sugars l3 d8 l2, PS)	642
GGCAAGCATCCTG (sugars l3 d9 l1, PS)	496
GGCAAGCATCCTG (sugars l4 d6 l1 d1 l1, PS)	607
GGCAAGCATCCTG (sugars l4 d6 l3, PS)	618
GGCAAGCATCCTG (sugars l4 d7 l2, PS)	528
GGCAAGCATCCTG (sugars l4 d8 l1, PS)	604
GGCAAGCATCCTG (sugars lddlddddddldl, PS)	198
GGCAAGCATCCTG (sugars ldldddddddldl, PS)	344
GGCAAGCATCCTG (sugars ldllddddddldl, PS)	370
GGCAAGCATCCTG (sugars lldlddddddldl, PS)	334
GTTACTGCCTTCT (sugars l1 d1 l1 d7 l3, PS)	170
GTTACTGCCTTCT (sugars l1 d1 l1 d8 l2, PS)	123

Sequence	caspase activation (% of PBS control)
GTTACTGCCTTCT (sugars l1 d1 l1 d9 l1, PS)	117
GTTACTGCCTTCT (sugars l1 d1 l2 d6 l3, PS)	239
GTTACTGCCTTCT (sugars l1 d1 l2 d7 l2, PS)	154
GTTACTGCCTTCT (sugars l1 d1 l2 d8 l1, PS)	136
GTTACTGCCTTCT (sugars l1 d2 l1 d6 l3, PS)	134
GTTACTGCCTTCT (sugars l1 d2 l1 d7 l2, PS)	136
GTTACTGCCTTCT (sugars l1 d2 l1 d8 l1, PS)	110
GTTACTGCCTTCT (sugars l1 d9 l1 d1 l1, PS)	104
GTTACTGCCTTCT (sugars l1 d9 l3, PS)	171
GTTACTGCCTTCT (sugars l1 d10 l2, PS)	127
GTTACTGCCTTCT (sugars l1 d11 l1, PS)	112
GTTACTGCCTTCT (sugars l2 d1 l1 d6 l3, PS)	183
GTTACTGCCTTCT (sugars l2 d1 l1 d7 l2, PS)	134
GTTACTGCCTTCT (sugars l2 d1 l1 d8 l1, PS)	133
GTTACTGCCTTCT (sugars l2 d8 l1 d1 l1, PS)	98.3
GTTACTGCCTTCT (sugars l2 d8 l3, PS)	168
GTTACTGCCTTCT (sugars l2 d9 l2, PS)	114
GTTACTGCCTTCT (sugars l2 d10 l1, PS)	109
GTTACTGCCTTCT (sugars l3 d7 l1 d1 l1, PS)	161
GTTACTGCCTTCT (sugars l3 d7 l3, PS)	267
GTTACTGCCTTCT (sugars l3 d8 l2, PS)	164
GTTACTGCCTTCT (sugars l3 d9 l1, PS)	138
GTTACTGCCTTCT (sugars l4 d6 l1 d1 l1, PS)	221
GTTACTGCCTTCT (sugars l4 d6 l3, PS)	356
GTTACTGCCTTCT (sugars l4 d7 l2, PS)	196
GTTACTGCCTTCT (sugars l4 d8 l1, PS)	142
GTTACTGCCTTCT (sugars lddlddddddldl, PS)	110

Sequence	caspase activation (% of PBS control)
GTTACTGCCTTCT (sugars ldldddddddldl, PS)	108
GTTACTGCCTTCT (sugars ldllddddddldl, PS)	156
GTTACTGCCTTCT (sugars lldlddddddldl, PS)	105
GTTACTGCCTTCTTAC (sugars l1 d1 l1 d8 l5, PS)	298
GTTACTGCCTTCTTAC (sugars l1 d1 l1 d9 l4, PS)	147
GTTACTGCCTTCTTAC (sugars l1 d1 l1 d10 l3, PS)	109
GTTACTGCCTTCTTAC (sugars l1 d1 l1 d11 l2, PS)	97.8
GTTACTGCCTTCTTAC (sugars l1 d1 l1 d12 l1, PS)	103
GTTACTGCCTTCTTAC (sugars l1 d1 l2 d7 l5, PS)	361
GTTACTGCCTTCTTAC (sugars l1 d1 l2 d8 l4, PS)	200
GTTACTGCCTTCTTAC (sugars l1 d1 l2 d9 l3, PS)	141
GTTACTGCCTTCTTAC (sugars l1 d1 l2 d10 l2, PS)	130
GTTACTGCCTTCTTAC (sugars l1 d1 l2 d11 l1, PS)	156
GTTACTGCCTTCTTAC (sugars l1 d1 l3 d6 l5, PS)	616
GTTACTGCCTTCTTAC (sugars l1 d1 l3 d7 l4, PS)	465
GTTACTGCCTTCTTAC (sugars l1 d1 l3 d8 l3, PS)	463
GTTACTGCCTTCTTAC (sugars l1 d1 l3 d9 l2, PS)	292
GTTACTGCCTTCTTAC (sugars l1 d1 l3 d10 l1, PS)	323
GTTACTGCCTTCTTAC (sugars l1 d2 l1 d7 l5, PS)	268
GTTACTGCCTTCTTAC (sugars l1 d2 l1 d8 l4, PS)	175
GTTACTGCCTTCTTAC (sugars l1 d2 l1 d9 l3, PS)	131
GTTACTGCCTTCTTAC (sugars l1 d2 l1 d10 l2, PS)	93.2
GTTACTGCCTTCTTAC (sugars l1 d2 l1 d11 l1, PS)	91.7
GTTACTGCCTTCTTAC (sugars l1 d2 l2 d6 l5, PS)	485
